# Results from publication PMC7616463, “Peptidic boronic acid Plasmodium falciparum SUB1 inhibitors with improved selectivity over human proteasome” (Journal of medicinal chemistry, 2024).
# Where “and” joins values, the source holds several entries; their conditions need not be identical. Equal entries are not always repeated.
# Key:
# HepG2 cells = assay: Mammalian cell cytotoxicity assay (resazurin); type: cell-based
# Procedure: HepG2 cells were cultured in Dulbecco’s Modified Eagle Medium with F12 GlutaMAX (DMEM/F12 GlutaMAX) (Gibco) supplemented with 10% (v/v) heat-inactivated foetal calf serum (FCS), 1% L-glutamine and 1% penicillin-streptomycin (10,000 U/ml), and maintained in a humidified 5% CO2 incubator at 37°C. The culture medium was changed every 2-3 days and cells were passaged when a confluency of 75-80% was reached. At passage 2 or above, HepG2 cells were harvested using 0.25% trypsin-0.53 mM EDTA (Gibco). Cell counts and cell viability were determined by an automated cell counting machine (vi-CELL, Beckman) and seeded at a density of 1x10^4-5x10^5 cells per well in a transparent flat-bottom 96-well plate (Corning), and maintained in a humidified 5% CO2 incubator at 37°C. […] As a vehicle control, 1% DMSO was used. After 48 hs, media was removed and replaced with 100 μl media containing 10% resazurin solution (Invitrogen) and incubated for 4 h at 37°C in 5% CO2. After 4 h, the solution was transferred to an opaque 96-well plate (Corning) to measure reduction of resazurin to resorufin using a SpectraMax M5 microplate reader (Molecular Devices LLC) (ex. 560 nm, em. 590 nm). Cells without treatment compounds were used to determine 100% viability. Cell viability was determined by measuring fluorescence as a % of solvent control. Concentration viability response curves, CC50 values, mean CC50 value and standard error were generated using GraphPad Prism 10 (GraphPad Software).
# [1] = tested on: P. falciparum line 1AC5 (8-10-fold reduced PfSUB1); assay: Parasite growth assay, PfSUB1 knock-down 1AC5 line; type: cell-based, Plasmodium falciparum
# From the text: (§1) The DiCre-expressing P. falciparum line B11 (derived from a 3D7 background) has been described in full previously.[45] To generate a mutant line selectively expressing reduced levels of PfSUB1, we exploited the anhydrotetracycline (aTc)-inducible TetR aptamer system described by Niles and colleagues[46] and subsequently adapted by Rajaram et al.[47] Briefly, the B11 line was first modified by the incorporation into the genomic Pfs47 locus of a cassette for constitutive expression of a TetR-DOZI fusion protein. The 3’ flanking region of the SUB1 gene was then modified by incorporation of 10 Tet repressor-binding aptamers, following by limiting dilution cloning to obtain a genetically homogenous line called 1AC5. […] Complete details of the characterization of this parasite line will be provided in a separate manuscript.
# (§2) The effects of test compounds on in vitro growth of the B11 and 1AC5 P. falciparum lines was determined by flow cytometry as described previously.[48] Briefly, synchronous ring-stage parasites at 0.1% parasitaemia and 2% haematocrit were dispensed into flat-bottomed 96-well culture plates (200 ul per well) each containing 1 ul of appropriate serial dilutions of boronic acid or control antimalarial compounds in DMSO. Control wells contained DMSO only. Following incubation in sealed, humidified gassed chambers at 37°C for 96 h to allow the parasites to undergo two entire cycles of erythrocytic growth, cells were fixed, stained with SYBR green and analysed by flow cytometry on a BD FACSVerse™ using BD FACSuite™ software. Data were analysed using FlowJo software. EC50 values and statistical data were determined from dose-response curves generated using GraphPad Prism 10 (GraphPad Software).
# [2] = tested on: human 20S proteasome (H20S), chymotrypsin-like β5 activity; assay: Human 20S proteasome kinetic assay (chymotrypsin-like β5 activity); type: biochemical; conditions: PfSUB1 vs H20S inhibition
# Procedure: The fluorescent Proteasome substrate LLVY-R110 (ex: 490 nm, Em:525 nm) (#MAK172, Sigma-Aldrich) was used to measure the chymotrypsin-like activity (β5) of the human 20S proteasome and was prepared according to the activity assay kit instructions. Cleavage of this peptide generated intense green fluorescence due to the R110 group and was monitored at 520-530 nm with excitation at 480-500 nm. The purified human 20S proteasome (BML-PW8720-0050, EnzoSciences), stored at 1mg/ml in 20 mM Tris-HCl pH 7.2, 1mM EDTA, 1mM DTT 1mM NaN3, 50% glycerol was diluted in TRIS-buffered saline (TBS, pH 7.4) to an intermediate concentration of 0.44 μM. […] The reactions were performed in white 96-well fluorescent microtiter-plate format (Nunc). The Substrate solution was added first (100 μl), followed by 1 μl of the inhibitor (50 μM intermediate stock) and 1 μl of the H20S proteasome at 0.44 μM. The IC50s were determined for a selection of potent PfSUB1 inhibitors. After sequential dilution of the inhibitors in 100% DMSO, 1 μl of each dilution was used in a 100 μl reaction containing the fluorescent substrate. The reaction was initiated by the addition of 1 μl of the 20S proteasome intermediate stock solution. The fluorescence increase was monitored using a SpectraMax M5e plate reader and SoftMax Pro-6.3 software Measure activity on a plate reader (ex: 490 nm, Em: 525 nm) with the photomultiplier tube (PMT) set to medium with readings every 3 min for one hour. All measurements were done in duplicate. The progress curves were plotted within GraphPad Prism 9.5.0.
# P. falciparum line B11 = assay: Parasite growth assay, wild-type B11 line; type: cell-based; conditions: Plasmodium falciparum; 96 h, 2 erythrocytic cycles, SYBR green flow cytometry; triplicate; 95% confidence interval in parentheses; read-out: EC50 parasite growth, B11 line
# From the text: as §1, with “To generate a mutant line selectively expressing reduced levels of PfSUB1, we exploited the anhydrotetracycline (aTc)-inducible TetR aptamer system described by Niles and colleagues[46] and subsequently adapted by Rajaram et al.[47]” left out
# as §2
# [3] = target: T1, recombinant PfSUB1 (rPfSUB1) (Plasmodium falciparum, UniProt Q8I0V0); assay: PfSUB1 enzyme assay (recombinant PfSUB1, fluorogenic peptide substrate); type: biochemical
# T1 construct: made in house
# T1 sequence (Q8I0V0 218-688): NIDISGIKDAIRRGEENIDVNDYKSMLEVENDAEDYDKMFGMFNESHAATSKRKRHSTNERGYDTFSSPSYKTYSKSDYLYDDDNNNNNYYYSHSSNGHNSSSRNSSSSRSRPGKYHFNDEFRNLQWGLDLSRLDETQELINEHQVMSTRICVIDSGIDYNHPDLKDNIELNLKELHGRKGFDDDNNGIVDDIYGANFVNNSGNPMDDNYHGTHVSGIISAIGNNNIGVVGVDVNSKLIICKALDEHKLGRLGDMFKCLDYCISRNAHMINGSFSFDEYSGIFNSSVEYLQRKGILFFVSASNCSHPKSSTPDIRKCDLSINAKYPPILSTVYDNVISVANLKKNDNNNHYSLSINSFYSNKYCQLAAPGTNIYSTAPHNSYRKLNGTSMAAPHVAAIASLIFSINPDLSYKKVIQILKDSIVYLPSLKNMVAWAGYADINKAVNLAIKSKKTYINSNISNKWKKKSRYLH
# Procedure: The proteolytic activity of rPfSUB1 was monitored by the cleavage of the fluorogenic peptidic substrate SERA4st1F-6R12 (Ac-[…]-OH) and has been described previously.[28] Briefly, chymotrypsin treated rPfSUB1 (expressed and purified as described before […] was stored at −80 °C as a 228 U/mL stock in 20 mM Tris−HCl pH 8.2, 150 mM NaCl, 10% glycerol, and diluted for use (1:500) in reaction buffer (20 mM Tris−HCl pH 8.2, 150 mM NaCl, 12 mM CaCl2, 25 mM CHAPS). Peptidic boronic acid inhibitors were dissolved in 100% DMSO at 20 mM, then further diluted in DMSO to generate stock solutions ranging from 500 to 0.01 μM and then used diluted 1:100 in the enzyme reactions. All reactions were performed in wells of white 96-well microwell plates (Nunc); 50 μL diluted rPfSUB1 was preincubated for 5 min with 1 μL each of the serially diluted boronic acid inhibitors, followed by addition of 50 μL substrate solution (0.1 μM final). Subsequent fluorescence increase was continuously monitored using a SpectraMax M5e plate reader and SoftMax Pro-6.3 software, with readings taken every 3 min for 60 min using excitation and emission values of 552 and 580 nm, respectively. […] All experiments were performed in duplicate.
smiles,measurement,setting,value
"CC[C@H](C)[C@H](NC(=O)[C@@H](NC(=O)c1cc(C)cc(C)c1)C1CCCC1)C(=O)NCC(=O)N[C@H]1CCC(=O)OB1O [4c, N-((S)-1-cyclopentyl-2-(((2S,3S)-1-((2-(((R)-2-hydroxy-6-oxo-1,2-oxaborinan-3-yl)amino)-2-oxoethyl)amino)-3-methyl-1-oxopentan-2-yl)amino)-2-oxoethyl)-3,5-dimethylbenzamide]",CC50 (concentration that reduced cell viability by 50%),"HepG2 cells; HepG2, 48 h treatment, resazurin, triplicate, tested up to 30 μM (1a), 200 μM (4c), 150 μM (tipifarnib)",296000 nM
same,factor by which less toxic to HepG2 than 1a,HepG2 cells; HepG2 CC50 of 4c vs 1a,27 fold
same,EC50,"[1]; Plasmodium falciparum, 96 h, read-out: EC50 parasite growth, 1AC5 line",160 nM
same,fold higher sensitivity of 1AC5 line than of B11 line,"[1]; growth inhibition, 1AC5 vs wild-type B11",13 fold and ~ 13 fold
same,selectivity versus H20S,[2],> 60 fold
same,EC50,P. falciparum line B11,2260 nM
same,IC50,[3],15.3 ± 0.1 nM
